Data as given in BindingDB's records for doi:10.1021/jm049864b (Boehringer Ingelheim (Canada), 2004).
pIC50: −log10 of the molar value. Where a SMILES comes first, the peptide text is derived from it. [ ]: non-standard residue; d: D form. Nva = CCC[C@H](N)C(=O)O

Target: T1, Genome polyprotein [1027-1206,R1052K]/[1678-1691] (Hepatitis C virus genotype 1b (isolate Japanese), UniProt P26662+Q9WMX2, R1052K)
T1 construct: 1027-1206; 1678-1691
Assay: HCV Protease Inhibition Assay
Settings: pH 7.5; 23 °C

T1 sequence (Q9WMX2 1027-1206, looked up, stated change not applied, other chains not shown): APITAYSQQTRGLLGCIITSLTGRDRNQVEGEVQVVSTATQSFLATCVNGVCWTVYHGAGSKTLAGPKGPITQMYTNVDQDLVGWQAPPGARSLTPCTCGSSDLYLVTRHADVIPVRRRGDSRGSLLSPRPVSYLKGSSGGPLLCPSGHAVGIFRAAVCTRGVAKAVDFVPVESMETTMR

CCC[C@H](NC(=O)[C@@H]1CCCN1C(=O)[C@@H](NC(=O)[C@@H](NC(=O)[C@H](CC(=O)O)NC(=O)[C@H](CC(=O)O)NC(C)=O)[C@@H](C)CC)C(C)C)C(=O)O [(2S)-2-{[(2S)-1-[(2S)-2-[(2S)-2-[(3S)-3-[(3S)-3-acetamido-3-formamidopropanoic acid]-3-formamidopropanoic acid]-3-methylpentanamido]-3-methylbutanoyl]pyrrolidin-2-yl]formamido}pentanoic acid] (Ac-DDIVP[Nva]-OH)
pIC50: 3.82
